In ChEMBL document CHEMBL1124487, “Acid-sensitive latent inhibitors for proteolytic enzymes: synthesis and characterization” (J Med Chem, 1989):

Legend:
Papain [1] = biological target: T1, Papain (Carica papaya, UniProt P00784); test: Inhibition of papain-catalyzed hydrolysis of BzArg p-nitroanilide by compound at pH 7
T1 sequence (P00784 whole entry): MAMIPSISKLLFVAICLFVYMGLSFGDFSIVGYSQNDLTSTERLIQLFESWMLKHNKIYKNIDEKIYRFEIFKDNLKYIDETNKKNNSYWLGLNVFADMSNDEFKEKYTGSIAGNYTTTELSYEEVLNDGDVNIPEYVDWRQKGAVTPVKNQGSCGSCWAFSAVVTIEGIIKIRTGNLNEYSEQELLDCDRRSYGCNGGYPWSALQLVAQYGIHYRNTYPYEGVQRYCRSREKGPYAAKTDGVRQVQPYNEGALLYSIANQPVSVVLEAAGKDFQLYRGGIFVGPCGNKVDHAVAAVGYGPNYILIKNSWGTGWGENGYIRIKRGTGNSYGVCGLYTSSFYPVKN

Papain [2] = biological target: T1, Papain; test: Inhibition of papain-catalyzed hydrolysis of BzArg p-nitroanilide by compound at pH 5
Papain [3] = biological target: T1, Papain; test: Inhibition of papain-catalyzed hydrolysis of BzArg p-nitroanilide by compound at pH 5.5
Papain (Carica papaya) = biological target: T2, Papain (Carica papaya) (UniProt P00784)
T2 sequence (whole entry): T1 sequence (P00784 whole entry)
Description: Initial rate of reaction between papain and BzArg p-nitro-anilide in the presence of 400 uM at pH 7

## CC(=O)N[C@@H](C)C(=O)N/N=C/CNC(=O)c1ccccc1
Papain [1]
  Ki: 30 µM
Papain [2]
  Ki: 38 µM
Papain [3]
  Ki: 25 µM
Papain (Carica papaya)
  Kix: 1 mM
